1 molecule from patent US20240123078A1, “COMPOUNDS AND METHODS FOR MODULATING IMMUNE-RELATED PROTEINS” (Vividion Therapeutics, Inc., priority 2019, published 2024) can be followed below.

Structures are written as SMILES.

Holding throughout (assay): Cysteine reactivity ABPP
What all share (assay type): binding
What all share (details): 100

Experiment [1] concerns the target T1, MAPK9 Mitogen-activated protein kinase 9 C177 (P45984) (Homo sapiens, UniProt P45984).
T1 construct: endogenous in cells; host or cells: primary human T cells

Experiment [2] has as its target T2, UBASH3A Ubiquitin-associated and SH3 domain-containing protein A C435 (P57075) (Homo sapiens, UniProt P57075).
T2 construct: endogenous in cells; host or cells: primary human T cells
T2 sequence (P57075 1-661): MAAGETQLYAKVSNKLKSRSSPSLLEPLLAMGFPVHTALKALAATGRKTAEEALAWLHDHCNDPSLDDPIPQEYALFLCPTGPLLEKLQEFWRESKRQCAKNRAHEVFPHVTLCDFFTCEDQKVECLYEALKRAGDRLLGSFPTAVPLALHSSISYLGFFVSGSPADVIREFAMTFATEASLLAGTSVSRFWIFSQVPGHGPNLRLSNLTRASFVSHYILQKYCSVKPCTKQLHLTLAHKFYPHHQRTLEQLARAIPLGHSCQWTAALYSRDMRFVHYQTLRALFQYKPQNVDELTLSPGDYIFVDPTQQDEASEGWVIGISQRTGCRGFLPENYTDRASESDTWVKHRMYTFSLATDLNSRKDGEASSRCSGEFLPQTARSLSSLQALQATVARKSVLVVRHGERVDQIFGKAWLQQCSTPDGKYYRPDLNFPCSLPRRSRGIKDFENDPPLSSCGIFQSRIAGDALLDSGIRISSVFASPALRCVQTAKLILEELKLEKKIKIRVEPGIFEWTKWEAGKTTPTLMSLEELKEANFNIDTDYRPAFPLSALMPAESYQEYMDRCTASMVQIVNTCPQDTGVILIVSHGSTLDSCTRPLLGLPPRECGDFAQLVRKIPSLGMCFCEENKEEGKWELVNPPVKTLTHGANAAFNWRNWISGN

The target in experiment [3] is T3, KAT8 Histone acetyltransferase KAT8 C416 (Q9H7Z6) (Homo sapiens, UniProt Q9H7Z6).
T3 construct: endogenous in cells; host or cells: primary human T cells
T3 sequence (Q9H7Z6 1-458): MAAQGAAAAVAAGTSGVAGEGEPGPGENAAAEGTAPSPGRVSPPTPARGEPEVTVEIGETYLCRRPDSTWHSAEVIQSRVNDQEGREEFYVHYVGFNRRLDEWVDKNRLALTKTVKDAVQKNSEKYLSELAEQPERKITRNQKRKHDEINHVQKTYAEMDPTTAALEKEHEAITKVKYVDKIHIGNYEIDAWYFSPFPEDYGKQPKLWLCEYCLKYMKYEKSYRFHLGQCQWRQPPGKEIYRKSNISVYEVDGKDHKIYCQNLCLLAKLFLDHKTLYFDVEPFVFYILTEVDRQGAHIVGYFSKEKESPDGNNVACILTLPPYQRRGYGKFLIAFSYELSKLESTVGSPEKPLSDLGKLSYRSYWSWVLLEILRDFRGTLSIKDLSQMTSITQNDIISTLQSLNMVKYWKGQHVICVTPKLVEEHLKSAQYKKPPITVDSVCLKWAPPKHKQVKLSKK

T1 sequence (P45984 whole entry): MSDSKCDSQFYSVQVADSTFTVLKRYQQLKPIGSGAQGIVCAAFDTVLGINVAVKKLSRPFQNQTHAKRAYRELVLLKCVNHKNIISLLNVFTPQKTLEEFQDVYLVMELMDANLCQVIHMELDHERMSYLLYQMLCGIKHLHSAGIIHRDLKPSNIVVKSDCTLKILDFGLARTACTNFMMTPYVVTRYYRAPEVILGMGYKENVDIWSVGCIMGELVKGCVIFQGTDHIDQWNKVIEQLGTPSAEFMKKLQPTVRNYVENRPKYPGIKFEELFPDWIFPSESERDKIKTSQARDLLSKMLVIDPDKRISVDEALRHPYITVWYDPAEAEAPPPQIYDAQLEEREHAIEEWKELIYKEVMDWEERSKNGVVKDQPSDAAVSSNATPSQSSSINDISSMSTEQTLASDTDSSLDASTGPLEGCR

As for `O=C(CCl)N1CCN(S(=O)(=O)c2ccc(-c3ccncc3)cc2)CC1` [Compound B9], the “Cysteine reactivity proteomic data” value in experiment [1] is 72.19; in experiment [2] it was 78.65; in experiment [3] it was 67.98.
